“Also recorded” adds a separate entry of the source.
Tested on: rat forced swim test (FST)
Assay: Rat forced swim test (FST)
Assay type: in vivo
Conditions: single dose 10 mg/kg, IP, 30 min before testing
Experimental: The forced swim test (FST) is a classic model to assess the antidepressant-like activity of compounds that has been in use for over 40 years (Porsolt et al. (1977) Nature 266:730-732; Detke et al. (1995) Psychopharmacology 121:66-72). […] A single dose of 5 mg/kg methylone reduces immobility by approximately 50% compared to vehicle-treated controls, whereas a 15 mg/kg dose reduces immobility by nearly 100%. Accompanying changes in climbing and/or swimming behavior reflect noradrenergic and serotonergic activities of methylone, respectively.
All FST studies are performed and scored by an experimenter blind to treatment group and according to standard protocols. Briefly, rats are placed in a circular plexiglass container filled with water. Water temperature is maintained at 22-25° C. and changed for every animal. Day 1 (Training) consists of a 15 min acclimation trial, and Day 2 (Testing, 24 h later) consists of the 5 min test. A time sampling procedure is employed where animals are observed every 5 seconds for the duration of the test session (60 counts or 5 minutes) and scored for immobility (defined as the failure to struggle), swimming (defined as a circular movement around the tank), or climbing (defined as an upwards escape behavior). Data are expressed as the percent of the testing session (e.g., the number of immobility counts divided by 60). A p-value less than 0.05 indicates statistical significance after typical statistical analyses (e.g., unpaired t-test or ANOVA).
To determine that the prodrug and/or enantiomer has an antidepressant-like effect and to compare it to methylone, rats are treated with each compound 30 min prior to testing. Additional tests are run 24, 72, 168 hours post-dose or longer. Effects on Fear Extinction in a Model of Post-Traumatic Stress Disorder (PTSD)
Racemic methylone (10 mg/kg, IP) has a maximal antidepressant-like effect in the rat forced swim test (FST), reducing immobility by nearly 100% compared to vehicle treated controls. […]

For `CN[C@H](C)C(=O)c1ccc2c(c1)OCO2` [(R)-methylone], the “antidepressant-like effect (immobility) compared to vehicle” value was “no effect”.
In the case of `CN[C@@H](C)C(=O)c1ccc2c(c1)OCO2` [(S)-methylone], the “antidepressant-like effect (immobility) compared to vehicle” value (10 mg/kg) was “Mimics the Rapid and Robust Antidepressant-like Activity of Racemic Methylone; also recorded: mimicked the rapid and robust antidepressant-like effect of racemic methylone”.
